# Reference: ChEMBL document CHEMBL1201862, “PubChem BioAssay data set” (2004)
# Active and inactive are the calls of the source.
# Legend:
# Fatty acid synthase [1] = molecular target: T1, Fatty acid synthase (Homo sapiens, UniProt P49327); experiment: FAS thioesterase domain inhibitors, dose response, biochemical, endpoint fluorescence intensity, uHTS hits (AID 624327); assay type: functional;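 note: fluorescence from hydrolysis of an O-methyl fluorescein acyl ester substrate by the enzyme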
# Fatty acid synthase [2] = molecular target: T1, Fatty acid synthase; experiment: FAS thioesterase domain inhibitors, dose response, biochemical, kinetic fluorescence intensity (AID 624326); assay type: functional;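 note: rate of fluorescence rise from hydrolysis of a fluorogenic O-methyl fluorescein ester substrate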
# SN12K1 = experiment: cells; assay type: functional; settings: Homo sapiens
# P388/ADR = experiment: cells; assay type: functional; settings: Mus musculus
# P388 = experiment: cells; assay type: functional; settings: Mus musculus
# [3] = cytotoxicity toward NIH3T3 fibroblasts, dose response, counter-screen, cell-based, ATP luminescence, mouse fibroblasts (AID 2010); assay type: functional;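 note: cells exposed to compound for about 90 hours before reading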
# INS1 = experiment: beta cell apoptosis inhibitors, cytokine rescue, dose response, luminescence, retest (AID 449756); assay type: functional, cell-based; settings: Rattus norvegicus;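 note: cell death triggered by IL-1 beta plus TNF-alpha plus IFN-gamma mixture; protective hits raise ATP signal compared with cytokine alone wells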
# [4] = inhibitors of intracellular T. cruzi replication, confirmation, NIH3T3 host cells, beta-gal luminescence (AID 2044); assay type: functional, cell-based;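 note: intracellular parasites grown in NIH/3T3 mouse fibroblasts as host cells; luminescent beta-galactosidase reporter signal from transgenic T. cruzi replicating inside host cells; inhibitors lower the luminescence signal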
# [5] = microbe, parasite or virus in culture; assay type: functional; settings: Mycobacterium tuberculosis
# cells [6] = assay type: functional, cell-based
# cells [7] = assay type: functional, cell-based; remark: listed apart in the source
# [8] = molecular target: T2, Short transient receptor potential channel 4 (Mus musculus, UniProt Q9QUQ5); experiment: mouse TRPC4 channel inhibitors, dose response, cell-based, HEK293 TRPC4/mu-opioid, Fluo-4 calcium (AID 434942); assay type: functional;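 note: potency of inhibitors blocking the TRPC4 calcium response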
# T2 sequence (Q9QUQ5 whole entry): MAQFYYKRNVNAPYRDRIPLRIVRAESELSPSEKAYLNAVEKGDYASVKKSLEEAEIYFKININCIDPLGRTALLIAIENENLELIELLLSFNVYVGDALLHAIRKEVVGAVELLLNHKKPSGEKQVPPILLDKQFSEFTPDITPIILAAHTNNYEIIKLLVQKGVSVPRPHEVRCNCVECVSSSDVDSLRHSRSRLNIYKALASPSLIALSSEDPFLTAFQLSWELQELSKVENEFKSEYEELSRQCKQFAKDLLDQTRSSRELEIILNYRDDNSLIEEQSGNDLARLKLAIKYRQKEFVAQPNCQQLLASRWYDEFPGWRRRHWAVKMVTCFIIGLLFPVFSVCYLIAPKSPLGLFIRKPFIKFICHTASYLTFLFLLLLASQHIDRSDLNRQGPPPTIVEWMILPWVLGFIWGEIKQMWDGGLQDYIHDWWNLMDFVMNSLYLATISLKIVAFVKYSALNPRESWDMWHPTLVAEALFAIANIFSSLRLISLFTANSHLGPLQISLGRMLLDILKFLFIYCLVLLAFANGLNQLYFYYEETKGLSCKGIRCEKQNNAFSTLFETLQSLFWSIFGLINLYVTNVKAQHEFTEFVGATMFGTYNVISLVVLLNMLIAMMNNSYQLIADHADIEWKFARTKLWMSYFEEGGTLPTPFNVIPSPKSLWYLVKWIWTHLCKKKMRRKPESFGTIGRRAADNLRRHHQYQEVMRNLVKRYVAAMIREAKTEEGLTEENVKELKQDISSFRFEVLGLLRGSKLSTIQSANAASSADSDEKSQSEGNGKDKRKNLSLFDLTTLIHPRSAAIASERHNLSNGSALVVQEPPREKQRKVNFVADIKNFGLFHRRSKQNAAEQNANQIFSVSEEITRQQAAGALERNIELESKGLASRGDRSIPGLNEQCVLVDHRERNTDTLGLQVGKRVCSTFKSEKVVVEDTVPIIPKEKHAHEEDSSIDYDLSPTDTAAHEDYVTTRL
# [9] = molecular target: Heat shock protein HSP 90-alpha (Homo sapiens, UniProt P07900); assay type: functional, organism-based
# Leucine aminopeptidase = molecular target: T3, Leucine aminopeptidase (Plasmodium falciparum 3D7, UniProt Q8IL11); experiment: P. falciparum M17LAP inhibitors, primary screen, biochemical, fluorogenic H-Leu-NHMec substrate, 1536-well (AID 1619); assay type: functional
# T3 sequence (Q8IL11 whole entry): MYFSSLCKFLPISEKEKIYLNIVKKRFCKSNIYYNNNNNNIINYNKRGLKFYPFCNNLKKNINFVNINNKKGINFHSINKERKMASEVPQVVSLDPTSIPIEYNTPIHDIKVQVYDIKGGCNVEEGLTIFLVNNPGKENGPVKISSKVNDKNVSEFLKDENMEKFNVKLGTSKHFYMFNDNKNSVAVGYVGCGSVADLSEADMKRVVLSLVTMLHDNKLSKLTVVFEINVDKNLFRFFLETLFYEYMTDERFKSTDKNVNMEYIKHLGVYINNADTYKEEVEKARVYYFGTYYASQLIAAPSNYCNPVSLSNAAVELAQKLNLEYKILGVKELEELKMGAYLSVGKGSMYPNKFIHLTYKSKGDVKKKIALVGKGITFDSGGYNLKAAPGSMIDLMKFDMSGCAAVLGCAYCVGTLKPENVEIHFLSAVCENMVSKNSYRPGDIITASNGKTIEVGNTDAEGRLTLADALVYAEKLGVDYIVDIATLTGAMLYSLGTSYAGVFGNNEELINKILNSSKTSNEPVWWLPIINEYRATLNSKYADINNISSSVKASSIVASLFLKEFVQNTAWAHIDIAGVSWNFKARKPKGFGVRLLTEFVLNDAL
# Aminopeptidase N = molecular target: T4, Aminopeptidase N (Plasmodium falciparum FcB1/Columbia, UniProt O96935); experiment: P. falciparum M1AAP inhibitors, biochemical, fluorogenic H-Leu-NHMec substrate, 1536-well (AID 1445); design: species or system Plasmodium falciparum 3D7, 3D7
# T4 sequence (O96935 whole entry): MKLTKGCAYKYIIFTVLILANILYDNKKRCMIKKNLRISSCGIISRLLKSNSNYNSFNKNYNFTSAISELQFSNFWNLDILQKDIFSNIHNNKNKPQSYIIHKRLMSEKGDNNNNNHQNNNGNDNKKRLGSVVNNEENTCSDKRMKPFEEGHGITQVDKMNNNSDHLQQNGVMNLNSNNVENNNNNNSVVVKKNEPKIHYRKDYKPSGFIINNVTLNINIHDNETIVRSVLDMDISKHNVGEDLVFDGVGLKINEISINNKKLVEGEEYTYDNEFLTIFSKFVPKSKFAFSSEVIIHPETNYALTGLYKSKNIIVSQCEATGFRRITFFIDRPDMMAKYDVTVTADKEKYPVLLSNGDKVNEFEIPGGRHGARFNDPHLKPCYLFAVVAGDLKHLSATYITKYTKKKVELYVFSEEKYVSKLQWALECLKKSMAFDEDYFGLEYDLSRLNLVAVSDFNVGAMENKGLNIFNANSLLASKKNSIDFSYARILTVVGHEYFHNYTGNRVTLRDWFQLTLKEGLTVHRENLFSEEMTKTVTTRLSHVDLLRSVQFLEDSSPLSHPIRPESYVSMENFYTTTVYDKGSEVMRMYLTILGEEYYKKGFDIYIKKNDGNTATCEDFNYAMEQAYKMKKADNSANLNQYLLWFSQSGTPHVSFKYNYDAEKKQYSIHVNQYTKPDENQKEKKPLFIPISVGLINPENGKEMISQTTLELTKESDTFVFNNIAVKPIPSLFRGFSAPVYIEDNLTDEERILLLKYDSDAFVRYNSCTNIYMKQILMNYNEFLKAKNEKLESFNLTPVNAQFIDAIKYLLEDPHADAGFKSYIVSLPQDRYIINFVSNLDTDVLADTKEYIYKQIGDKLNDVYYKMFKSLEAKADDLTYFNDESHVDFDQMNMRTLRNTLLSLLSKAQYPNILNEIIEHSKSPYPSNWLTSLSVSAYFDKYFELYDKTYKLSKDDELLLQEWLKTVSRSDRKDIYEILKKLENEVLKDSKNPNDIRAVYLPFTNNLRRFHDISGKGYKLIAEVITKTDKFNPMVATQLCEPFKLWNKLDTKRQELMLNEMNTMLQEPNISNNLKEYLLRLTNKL
# Cytochrome P450 2D6 = Cytochrome P450 2D6 (Homo sapiens, UniProt P10635);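 note: CYP2D6 member of a cytochrome P450 panel assay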
# Chain of Cytochrome P450 2D6 (P10635 whole entry): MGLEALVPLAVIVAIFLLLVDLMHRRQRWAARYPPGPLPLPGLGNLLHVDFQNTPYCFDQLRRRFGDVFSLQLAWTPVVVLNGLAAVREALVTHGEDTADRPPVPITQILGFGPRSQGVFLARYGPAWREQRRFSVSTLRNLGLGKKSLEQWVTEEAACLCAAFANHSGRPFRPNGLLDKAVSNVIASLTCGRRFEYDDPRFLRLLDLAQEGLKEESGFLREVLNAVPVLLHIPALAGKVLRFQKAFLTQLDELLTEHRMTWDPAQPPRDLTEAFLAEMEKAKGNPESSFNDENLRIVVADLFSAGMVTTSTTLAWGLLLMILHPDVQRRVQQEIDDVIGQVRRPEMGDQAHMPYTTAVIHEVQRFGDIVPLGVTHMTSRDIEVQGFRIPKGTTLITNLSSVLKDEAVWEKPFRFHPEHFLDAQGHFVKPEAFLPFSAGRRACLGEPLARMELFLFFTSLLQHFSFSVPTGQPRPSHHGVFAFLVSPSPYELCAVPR
# Cytochrome P450 2C19 = Cytochrome P450 2C19 (Homo sapiens, UniProt P33261); experiment: Cytochrome panel assay with activity outcomes. Panel member name: p450-cyp2c19 Compounds with AC50 equal or less than 10 uM are considered active; assay type: functional
# Chain of Cytochrome P450 2C19 (P33261 whole entry): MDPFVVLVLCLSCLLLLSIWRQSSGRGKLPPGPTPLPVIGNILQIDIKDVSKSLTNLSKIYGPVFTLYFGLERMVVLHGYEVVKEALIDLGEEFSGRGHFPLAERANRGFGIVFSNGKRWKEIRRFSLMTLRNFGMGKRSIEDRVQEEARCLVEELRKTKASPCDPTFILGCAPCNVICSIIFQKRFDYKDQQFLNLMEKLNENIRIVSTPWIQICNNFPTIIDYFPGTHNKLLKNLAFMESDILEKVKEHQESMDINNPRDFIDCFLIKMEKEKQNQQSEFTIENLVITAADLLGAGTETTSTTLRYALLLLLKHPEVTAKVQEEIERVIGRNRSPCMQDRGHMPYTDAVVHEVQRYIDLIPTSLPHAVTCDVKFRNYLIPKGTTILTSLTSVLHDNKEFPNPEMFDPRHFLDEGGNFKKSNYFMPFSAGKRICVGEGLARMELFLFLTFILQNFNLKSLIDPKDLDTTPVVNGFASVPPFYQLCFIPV
# Cytochrome P450 3A4 = Cytochrome P450 3A4 (Homo sapiens, UniProt P08684);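 note: CYP3A4 tested as one member of a cytochrome P450 panel screen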
# Chain of Cytochrome P450 3A4 (P08684 whole entry): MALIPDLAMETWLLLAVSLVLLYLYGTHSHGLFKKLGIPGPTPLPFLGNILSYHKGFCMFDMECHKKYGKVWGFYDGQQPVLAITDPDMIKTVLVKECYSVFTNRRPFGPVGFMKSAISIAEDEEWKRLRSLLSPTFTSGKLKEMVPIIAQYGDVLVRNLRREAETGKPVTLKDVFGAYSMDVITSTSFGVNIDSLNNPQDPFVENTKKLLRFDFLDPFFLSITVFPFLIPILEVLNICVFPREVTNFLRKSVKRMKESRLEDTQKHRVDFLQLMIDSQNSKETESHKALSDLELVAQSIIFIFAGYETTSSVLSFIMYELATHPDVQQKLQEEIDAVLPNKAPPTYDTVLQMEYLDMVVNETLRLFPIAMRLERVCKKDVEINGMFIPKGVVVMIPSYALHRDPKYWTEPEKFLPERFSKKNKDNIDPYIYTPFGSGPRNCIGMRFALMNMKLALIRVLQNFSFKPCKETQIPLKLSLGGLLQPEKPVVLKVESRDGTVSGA
# T1 sequence (P49327 whole entry, the tested form may be a part): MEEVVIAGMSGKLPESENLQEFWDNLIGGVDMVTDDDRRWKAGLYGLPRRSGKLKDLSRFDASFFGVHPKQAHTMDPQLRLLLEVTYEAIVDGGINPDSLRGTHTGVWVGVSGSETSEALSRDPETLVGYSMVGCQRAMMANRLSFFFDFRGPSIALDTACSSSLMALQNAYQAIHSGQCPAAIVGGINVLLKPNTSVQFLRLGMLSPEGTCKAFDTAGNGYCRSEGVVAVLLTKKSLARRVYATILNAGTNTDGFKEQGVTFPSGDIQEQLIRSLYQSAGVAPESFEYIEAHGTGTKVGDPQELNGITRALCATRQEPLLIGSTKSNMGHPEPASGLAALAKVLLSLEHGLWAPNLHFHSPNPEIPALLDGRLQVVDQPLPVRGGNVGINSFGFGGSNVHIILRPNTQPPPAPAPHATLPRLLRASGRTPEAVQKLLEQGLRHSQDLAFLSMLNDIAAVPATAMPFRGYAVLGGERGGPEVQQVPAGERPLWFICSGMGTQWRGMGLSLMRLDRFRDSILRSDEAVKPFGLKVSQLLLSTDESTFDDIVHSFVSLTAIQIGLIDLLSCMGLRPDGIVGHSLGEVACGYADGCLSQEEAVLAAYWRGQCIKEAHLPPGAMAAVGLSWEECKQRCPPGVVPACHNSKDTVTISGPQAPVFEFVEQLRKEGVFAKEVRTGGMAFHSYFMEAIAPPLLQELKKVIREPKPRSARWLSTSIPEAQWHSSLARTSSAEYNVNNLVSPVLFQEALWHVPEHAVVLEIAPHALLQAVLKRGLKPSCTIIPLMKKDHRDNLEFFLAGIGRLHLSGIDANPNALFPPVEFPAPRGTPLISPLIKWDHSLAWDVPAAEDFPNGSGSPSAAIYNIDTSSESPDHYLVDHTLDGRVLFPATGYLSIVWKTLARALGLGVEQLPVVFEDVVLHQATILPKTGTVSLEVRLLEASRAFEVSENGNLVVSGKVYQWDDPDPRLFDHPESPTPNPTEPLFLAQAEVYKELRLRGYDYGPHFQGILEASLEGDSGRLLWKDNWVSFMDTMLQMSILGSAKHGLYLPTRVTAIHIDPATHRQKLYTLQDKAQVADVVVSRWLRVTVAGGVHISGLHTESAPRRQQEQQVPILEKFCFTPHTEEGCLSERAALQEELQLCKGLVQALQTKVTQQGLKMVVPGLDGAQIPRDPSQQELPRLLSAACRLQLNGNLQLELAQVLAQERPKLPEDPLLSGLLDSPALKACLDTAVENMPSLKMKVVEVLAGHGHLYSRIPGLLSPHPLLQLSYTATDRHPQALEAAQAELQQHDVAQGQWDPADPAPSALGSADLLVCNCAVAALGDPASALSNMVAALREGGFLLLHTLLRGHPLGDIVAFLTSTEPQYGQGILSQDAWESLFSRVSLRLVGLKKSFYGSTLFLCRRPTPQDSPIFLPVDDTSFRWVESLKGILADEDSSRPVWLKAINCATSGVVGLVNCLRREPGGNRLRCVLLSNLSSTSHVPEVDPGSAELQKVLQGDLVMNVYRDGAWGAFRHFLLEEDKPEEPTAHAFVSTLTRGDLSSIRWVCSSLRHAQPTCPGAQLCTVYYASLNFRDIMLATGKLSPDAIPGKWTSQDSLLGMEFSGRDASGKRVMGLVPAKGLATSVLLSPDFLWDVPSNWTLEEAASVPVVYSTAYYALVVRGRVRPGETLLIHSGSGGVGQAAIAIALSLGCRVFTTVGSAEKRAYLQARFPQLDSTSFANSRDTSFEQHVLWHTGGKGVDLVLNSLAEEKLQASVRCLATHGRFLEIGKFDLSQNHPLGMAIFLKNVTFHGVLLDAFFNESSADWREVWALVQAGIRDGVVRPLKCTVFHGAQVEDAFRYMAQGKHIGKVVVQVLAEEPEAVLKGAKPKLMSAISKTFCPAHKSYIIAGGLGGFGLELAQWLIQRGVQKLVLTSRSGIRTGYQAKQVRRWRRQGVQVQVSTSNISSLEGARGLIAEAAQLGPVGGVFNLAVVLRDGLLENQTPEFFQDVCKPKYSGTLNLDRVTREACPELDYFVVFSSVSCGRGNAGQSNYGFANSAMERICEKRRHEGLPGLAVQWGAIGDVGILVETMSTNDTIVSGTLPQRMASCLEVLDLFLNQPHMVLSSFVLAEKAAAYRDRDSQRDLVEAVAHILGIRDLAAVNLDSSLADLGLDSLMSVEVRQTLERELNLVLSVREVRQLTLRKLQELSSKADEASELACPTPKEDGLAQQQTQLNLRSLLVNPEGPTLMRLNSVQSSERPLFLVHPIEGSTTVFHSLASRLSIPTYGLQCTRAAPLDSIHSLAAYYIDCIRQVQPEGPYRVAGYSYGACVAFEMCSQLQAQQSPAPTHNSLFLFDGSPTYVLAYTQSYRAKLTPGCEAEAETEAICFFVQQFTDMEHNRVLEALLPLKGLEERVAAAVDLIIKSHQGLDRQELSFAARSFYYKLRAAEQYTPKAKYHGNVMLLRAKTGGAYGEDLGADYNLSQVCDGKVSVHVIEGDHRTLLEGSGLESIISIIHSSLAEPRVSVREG
structure (smiles),measurement,setting,value
N#Cc1cc2nc(O)c(O)nc2cc1[N+](=O)[O-],IC50,Fatty acid synthase [1],19.6 µM (active)
same,IC50,Fatty acid synthase [2],14.8 µM (active)
CN1CCN(c2ccc3[nH]c(-c4ccc5[nH]c(-c6ccc(O)cc6)nc5c4)nc3c2)CC1,GI50,SN12K1,27 µM (inactive)
same,GI50,P388/ADR,53.1 µM (inactive)
same,GI50,P388,7.94 µM (inactive)
Cc1ccc(-n2cccc2C(=S)N=P(N(C)C)(N(C)C)N(C)C)cc1,EC50,[3],> 30 µM (not active)
same,AC50,INS1,6.81 µM (active)
same,EC50,[4],0.148 µM (active)
same,CC50,[5],> 40 µM (active)
CCOC(=O)c1c(S(=O)(=O)N2CCC(C)CC2)c(C)n(C)c1C,EC50,cells [6],> 350 µM (not active)
same,EC50,cells [7],> 350 µM (not active)
CCCOc1ccc(C(=O)NC(=S)NCc2cccnc2)cc1,CC50,[5],> 40 µM (active)
CC1CCCN(CCCN2C(=O)C3C(C(=O)Nc4ccc(Cl)cc4)C4C=CC3(O4)C2C(=O)NC2CCCCC2)C1 (configuration not stated),EC50,[8],0.335 µM (active)
CCn1cc(C(=O)NCc2ccc(C)cc2)c(=O)c2cc(S(=O)(=O)N(C)C)ccc21,IC50,Fatty acid synthase [1],11.4 µM (active)
same,IC50,Fatty acid synthase [2],11.1 µM (active)
Cc1cccc(C2Nc3ccccc3C(=O)N2NC(=O)c2ccc([N+](=O)[O-])cc2)n1 (configuration not stated),IC50,Fatty acid synthase [1],10.4 µM (active)
same,IC50,Fatty acid synthase [2],12.8 µM (active)
COc1ccc2c(c1)OC[C@H]1[C@H]2N2C(=O)c3cc(OC)ccc3NC(=O)[C@@]2(C)[C@H]1c1ccccc1,AC50,[9],16.1 µM (active)
same,IC50,Fatty acid synthase [1],12.7 µM (active)
same,IC50,Fatty acid synthase [2],13.7 µM (active)
O=C(O)c1ccc(/C=C/c2ccc3cccc(O)c3n2)cc1,IC50,Leucine aminopeptidase,55.5 µM (active)
same,IC50,Aminopeptidase N,13 µM (active)
O=C(CN1C(=O)C2C3CC(C(Br)C3Br)C2C1=O)N1CCOCC1 (configuration not stated),IC50,Leucine aminopeptidase,47.5 µM (active)
Cc1c(CNc2ccc(Cl)c(C(=O)NC(CC(=O)O)C(=O)O)c2)ccc2nc(N)nc(N)c12 (configuration not stated),GI50,SN12K1,0.043 µM (active)
same,GI50,P388/ADR,0.049 µM (active)
same,GI50,P388,0.0339 µM (active)
COc1cccc(NC(=O)c2cc([N+](=O)[O-])ccc2NC(=O)CNCC2CCCO2)c1 (configuration not stated),IC50,Fatty acid synthase [1],12.3 µM (active)
same,IC50,Fatty acid synthase [2],13.1 µM (active)
c1ccc2c(c1)CCN(c1nc3cc4c(cc3s1)OCCO4)C2,CC50,[5],> 40 µM (active)
COc1ccc(Nc2nnc(SCC(=O)N3CCCC3)s2)cc1,IC50,Leucine aminopeptidase,10.1 µM (active)
Cc1ccc(CNc2ccc3c(c2)nc(C)n3C)cc1,EC50,cells [6],> 350 µM (not active)
same,EC50,cells [7],34.6 µM (active)
CN(C)C=O.O=C(COc1cccc(Cl)c1)Nc1nc(-c2ccc(S(=O)(=O)N3CCOCC3)cc2)cs1,IC50,Fatty acid synthase [1],4.49 µM (active)
same,IC50,Fatty acid synthase [2],5.53 µM (active)
CCn1c(SCC(=O)Nc2ncc(C(F)(F)F)cc2Cl)nnc1-c1ccccc1,IC50,Fatty acid synthase [1],5.96 µM (active)
same,IC50,Fatty acid synthase [2],4.08 µM (active)
O=C(O)C1CC=CCC1C(=O)Nc1cccc(F)c1 (configuration not stated),IC50,Leucine aminopeptidase,14.6 µM (active)
O=C(NCCCN1CCN(c2ccccc2F)CC1)Nc1ccccc1[N+](=O)[O-],EC50,cells [6],> 350 µM (not active)
same,EC50,cells [7],> 350 µM (not active)
COc1ccc(SC[C@H](Cc2ccccc2)N2CCN(C)CCC2=O)cc1,EC50,[8],1.33 µM (active)
CNC(=O)OCc1nc(SC)n(C)c1COC(=O)NC,GI50,SN12K1,115 µM (inactive)
same,GI50,P388/ADR,147 µM (inactive)
same,GI50,P388,75 µM (inactive)
CC(C)=CC(=O)OC1C2C(C)C(=O)OC2C(O)C(C)C2C=CC(=O)C21C (configuration not stated),GI50,SN12K1,2.39 µM (inactive)
same,GI50,P388/ADR,0.615 µM (active)
same,GI50,P388,0.627 µM (active)
CC(C)CCCCCCCCCCCCC(=O)NCC(=O)NC1C(C)OC(Nc2ncnc3c2ncn3C)C(O)C1O (configuration not stated),GI50,SN12K1,7.66 µM (inactive)
same,GI50,P388/ADR,> 100 µM (inactive)
same,GI50,P388,6.03 µM (inactive)
CN1OC(=O)N(C)C1c1ccccc1 (configuration not stated),GI50,SN12K1,> 100 µM (inactive)
same,GI50,P388/ADR,> 100 µM (inactive)
same,GI50,P388,> 100 µM (inactive)
COc1cc(C2c3cc4c(cc3[C@@H](Nc3ccc(C#N)cc3)C3COC(=O)[C@H]23)OCO4)cc(OC)c1O (some centres not stated),GI50,SN12K1,0.0736 µM (active)
same,GI50,P388/ADR,0.352 µM (active)
same,GI50,P388,0.00998 µM (active)
CCCCOC(=O)NS(=O)(=O)c1sc(CC(C)C)cc1-c1ccc(Cn2c(CC)nc3c(C)cc(C)nc32)cc1,AC50,Cytochrome P450 2D6,15.8 µM (inconclusive)
same,AC50,Cytochrome P450 2C19; read-out: AC50,15.8 µM (inconclusive)
same,CC50,[5],20.3 µM (active)
O=C(Cn1nc2ccccc2n1)N/N=C/c1cc(Cl)cc([N+](=O)[O-])c1O,IC50,Fatty acid synthase [1],8.31 µM (active)
same,IC50,Aminopeptidase N,45.2 µM (active)
same,IC50,Fatty acid synthase [2],6.5 µM (active)
Oc1ccc(/C=N/NC(=S)NC2CC3CCC2C3)cc1 (configuration not stated),EC50,cells [6],> 350 µM (not active)
same,EC50,cells [7],> 350 µM (not active)
CC1=NNC(=O)C1CCC(=O)N/N=C/c1ccc(Cl)cc1 (configuration not stated),IC50,Leucine aminopeptidase,52.6 µM (active)
O=c1cc(CSc2ccccc2)[nH]c(=S)[nH]1,IC50,Leucine aminopeptidase,12.5 µM (active)
same,AC50,Cytochrome P450 3A4,28.2 µM (inconclusive)
same,AC50,Cytochrome P450 2C19,inconclusive
